Reference: ChEMBL document CHEMBL4651402, “Screening of ~5500 FDA-approved drugs and clinical candidates for anti-SARS-CoV-2 activity” (2021)

System: SARS-CoV-2
Test: microbe, parasite or virus in culture
Settings: Severe acute respiratory syndrome coronavirus 2, Vero C1008, 48 h

Row | Compound | IC50 | IC50 (read-out: pIC50 (converted))
1 | CS(=O)(=O)CCC#N | > 20 µM | > 20 µM
2 | O=C(OC1C[C@@H]2CC3C[C@@H](C1)N2CC3=O)c1c[nH]c2ccccc12 (some centres not stated) | > 20 µM | > 20 µM
3 | N[C@@H](C(=O)N[C@@H]1C(=O)N2C(C(=O)O)=C(Cl)CS[C@H]12)c1ccccc1 [CEFACLOR ANHYDROUS] | > 20 µM | > 20 µM
4 | NC(=O)N=NC(N)=O | > 20 µM | > 20 µM
5 | CCOP(=S)(OCC)Oc1ccc2c(C)c(Cl)c(=O)oc2c1 [COUMAPHOS] | > 20 µM | > 20 µM
6 | C=CC(=O)N1CC[C@H](n2nc(C#Cc3cc(OC)cc(OC)c3)c3c(N)ncnc32)C1 [FUTIBATINIB] | > 20 µM | > 20 µM
7 | CC12C=CC(=O)C=C1[C@@H](F)CC1C2C(O)CC2(C)C1CCC2(O)C(=O)CO (some centres not stated) | > 20 µM | > 20 µM
8 | CN(CC(=O)N1CCOCC1)Cc1c(Cl)cccc1NC(=O)c1ccccc1 [FOMINOBEN] | > 20 µM | > 20 µM
9 | CON(C)Cc1ccc(O)c2c1C[C@H]1C[C@H]3[C@H](N(C)C)C(O)=C(C(N)=O)C(=O)[C@@]3(O)C(O)=C1C2=O [SARECYCLINE] | > 20 µM | > 20 µM
10 | CN(C)Cc1c(C(=O)NCCOc2ccc(C(=O)NO)cc2)oc2ccccc12 [ABEXINOSTAT] | > 20 µM | > 20 µM
11 | CC(O)CC(C)(C)O (configuration not stated) [HEXYLENE GLYCOL] | > 20 µM | > 20 µM
12 | O=C(OCc1ccccc1)c1ccc(O)cc1 | > 20 µM | > 20 µM
13 | Cc1ncc(COP(=O)(O)O)c(C=O)c1O [PYRIDOXAL PHOSPHATE ANHYDROUS] | > 20 µM | > 20 µM
14 | N[C@@H](Cc1ccc(N(CCCl)CCCl)cc1)C(=O)O | > 20 µM | > 20 µM
15 | CCCNCC(O)COc1ccccc1C(=O)CCc1ccccc1 (configuration not stated) [PROPAFENONE] | > 20 µM | > 20 µM
16 | C[N+]1(C)C2CCC1CC(OC(=O)C(CO)c1ccccc1)C2 (configuration not stated) | > 20 µM | > 20 µM
17 | CN[C@@H]1[C@@H](O)[C@@H](O[C@@H]2[C@@H](O)[C@H](O[C@H]3O[C@H]([C@@H](C)NC)CC[C@H]3N)[C@@H](N)C[C@H]2N)OC[C@]1(C)O [GENTAMICIN C1] | > 20 µM | > 20 µM
18 | Cc1noc(COc2ccccc2OCC(O)CNC(C)(C)C)n1 (configuration not stated) | > 20 µM | > 20 µM
19 | c1ccc2c(c1)OCC(CN1CCCCC1)O2 (configuration not stated) [PIPEROXAN] | > 20 µM | > 20 µM
20 | Cn1cnc([N+](=O)[O-])c1Sc1ncnc2[nH]cnc12 [AZATHIOPRINE] | > 20 µM | > 20 µM
21 | O=C1NS(=O)(=O)c2ccccc21 [SACCHARIN] | > 20 µM | > 20 µM
22 | CCOC(=O)C1=C(CN2CCOCC2)NC(c2nccs2)=NC1c1ccc(F)cc1Br (configuration not stated) | > 20 µM | > 20 µM
23 | CN1[C@@H]2CC[C@H]1C[C@@H](OC(=O)c1cc(Cl)cc(Cl)c1)C2 [BEMESETRON] | > 20 µM | > 20 µM
24 | CC(=O)N[C@@H](Cc1ccccc1)C(=O)N[C@H]1CCCNC(=O)[C@H](CCCN=C(N)N)NC(=O)[C@H](Cc2c[nH]c3ccccc23)NC(=O)[C@@H](CC2CCCCC2)NC(=O)[C@@H]2CCCN2C1=O | > 20 µM | > 20 µM
25 | CC(=O)Oc1cccc(C)c1 | > 20 µM | > 20 µM
26 | C/C=C(/C(=C/C)c1ccc(O)cc1)c1ccc(O)cc1 [DIENESTROL] | > 20 µM | > 20 µM

Row | Compound | IC50 | IC50 (read-out: pIC50 (converted))
27 | CO[C@H]1C[C@@H]2CC[C@@H](C)[C@@](O)(O2)C(=O)C(=O)N2CCCC[C@H]2C(=O)O[C@H]([C@H](C)C[C@@H]2CC[C@H](n3cnnn3)[C@H](OC)C2)CC(=O)[C@H](C)/C=C(/C)[C@@H](O)[C@@H](OC)C(=O)[C@H](C)C[C@H](C)\C=C/C=C\C=C/1C | > 20 µM | > 20 µM
28 | Cc1cc(Nc2ncnc3ccc(-c4ccc(CNCCS(C)(=O)=O)o4)cc23)ccc1Oc1ccn2ncnc2c1 | > 20 µM | > 20 µM
29 | O=C(O)[C@@H]1CSCN1 [THIOPROLINE] | > 20 µM | > 20 µM
30 | CCC[N+]12C3C[C@@H]([C@H](CC)[C@H]1O)[C@H]1[C@H](O)[C@]4(C[C@@H]12)c1ccccc1N(C)[C@@H]34 | > 20 µM | > 20 µM
31 | C[C@H]([C@@H](N)C(=O)N[C@@H](C(=O)O)[C@@H]1O[C@H](n2ccc(=O)[nH]c2=O)[C@@H](O)[C@H]1O)[C@@H](O)c1ccc(O)cn1 | > 20 µM | > 20 µM
32 | CCCC/N=C(/c1cc(Cl)ccc1O)c1ccccc1Cl [FENGABINE] | > 20 µM | > 20 µM
33 | CCN(CC)CCOC(=O)C(c1ccccc1)N1CCCCC1 (configuration not stated) [BIETAMIVERINE] | > 20 µM | > 20 µM
34 | C[C@H](C(=O)O)c1ccc2cc(OCc3ccc4ccccc4n3)ccc2c1 | > 20 µM | > 20 µM
35 | Cc1[nH]c(=O)c(C#N)cc1-c1ccncc1 [MILRINONE] | > 20 µM | > 20 µM
36 | CC(=O)O[C@H]1C[C@@H]2CC[C@@H]3[C@H](CC[C@@]4(C)[C@H]3C[C@H]([N+]3(C)CCCCC3)[C@@H]4OC(C)=O)[C@@]2(C)C[C@@H]1N1CCCCC1 [VECURONIUM] | > 20 µM | > 20 µM
37 | Cc1ccnc2c1NC(=O)c1cccnc1N2C1CC1 [NEVIRAPINE] | > 20 µM | > 20 µM
38 | Cc1cc(C(C)(C)C)cc(C)c1CC1=NCCN1 [XYLOMETAZOLINE] | > 20 µM | > 20 µM
39 | CC(=O)C12OC(C)(C)OC1CC1C3CCC4=CC(=O)CCC4(C)C3CCC12C (configuration not stated) | > 20 µM | > 20 µM
40 | CCC1(C)CC(=O)NC(=O)C1 [BEMEGRIDE] | > 20 µM | > 20 µM
41 | CN(C)CC(=O)O | > 20 µM | > 20 µM
42 | OC(c1ccc(Cl)cc1)(c1ccc(Cl)cc1)C1CC1 [PROCLONOL] | > 20 µM | > 20 µM
43 | CCCCCCCCCCCCOS(=O)(=O)O | > 20 µM | > 20 µM
44 | COc1ccccc1CN[C@H]1CCCN[C@H]1c1ccccc1 [CP-99994] | > 20 µM | > 20 µM
45 | CCCCOc1cc(CC2CNC(=O)N2)ccc1OC (configuration not stated) [RO-201724] | > 20 µM | > 20 µM
46 | CN1Cc2cc(C3=NNC(=O)CC3)ccc2NC1=O [PRINOXODAN] | > 20 µM | > 20 µM
47 | Cc1ccc(C(=O)c2ccc(CC(=O)O)n2C)cc1 [TOLMETIN] | > 20 µM | > 20 µM
48 | O=C1N[C@@H](C(=O)O)CS1 | > 20 µM | > 20 µM
49 | Cc1ccccc1OCC(O)CNCCOc1ccc(C(N)=O)cc1 (configuration not stated) [TOLAMOLOL] | > 20 µM | > 20 µM
50 | Nc1ccc(S(=O)(=O)Nc2nccs2)cc1 [SULFATHIAZOLE] | > 20 µM | > 20 µM
51 | CC(C)NCC(O)COc1ccc(CC(N)=O)cc1 (racemic) [ATENOLOL] | > 20 µM | > 20 µM
52 | [N-]=[N+]=CC(=O)CC[C@H](N)C(=O)O [6-DIAZO-5-OXO-L-NORLEUCINE] | > 20 µM | > 20 µM

Row | Compound | IC50 | IC50 (read-out: pIC50 (converted))
53 | NC(=O)c1ccccc1O [SALICYLAMIDE] | > 20 µM | > 20 µM
54 | C[C@H]1C(=O)O[C@@H]2CCN3CC=C(COC(=O)[C@](C)(O)[C@]1(C)O)[C@H]23 [MONOCROTALINE] | > 20 µM | > 20 µM
55 | Cc1cc(Nc2nc(N[C@@H](C)c3ncc(F)cn3)ncc2Cl)[nH]n1 [AZD-1480] | > 20 µM | > 20 µM
56 | N#Cc1cc(CN2CCC(Nc3ncnc4sc(Cl)cc34)CC2)ccc1F [PRX-08066 FREE BASE] | > 20 µM | > 20 µM
57 | Cc1ccc(/C(=C\CN2CCCC2)c2ccccn2)cc1 [TRIPROLIDINE] | > 20 µM | > 20 µM
58 | O=C(CO)CO [DIHYDROXYACETONE] | > 20 µM | > 20 µM
59 | N=C(N)NN=C1C=CC(=NNC(N)=S)C=C1 [AMBAZONE] | > 20 µM | > 20 µM
60 | Cc1cccc(NC(=O)N[C@@H]2N=C(c3ccccc3)c3ccccc3N(C)C2=O)c1 [L-365260] | > 20 µM | > 20 µM
61 | CC(C)c1cc(-c2n[nH]c(=O)n2-c2ccc3c(ccn3C)c2)c(O)cc1O [GANETESPIB] | > 20 µM | > 20 µM
62 | NS(=O)(=O)NC[C@H]1COc2cc(Cl)ccc2O1 [JNJ-26489112] | > 20 µM | > 20 µM
63 | O=C(O)CNC(=O)C(CS)Cc1ccccc1 (configuration not stated) [THIORPHAN] | > 20 µM | > 20 µM
64 | CCCCCc1ccc(C)cc1O [AMYLMETACRESOL] | > 20 µM | > 20 µM
65 | CN1CCC(=C2c3ccccc3CCc3cccnc32)CC1 [AZATADINE] | > 20 µM | > 20 µM
66 | O=c1ccc2cc(O[C@@H]3O[C@H](CO)[C@@H](O)[C@H](O)[C@H]3O)c(O)cc2o1 [ESCULIN] | > 20 µM | > 20 µM
67 | CCN(CC)CCSC(=O)N(c1ccccc1)c1ccccc1 [PHENCARBAMIDE] | > 20 µM | > 20 µM
68 | CC(C)(O)CNc1nc(Nc2ccnc(C(F)(F)F)c2)nc(-c2cccc(C(F)(F)F)n2)n1 [ENASIDENIB] | > 20 µM | > 20 µM
69 | C=C[C@@H]1CN2CCC1C[C@@H]2[C@H](O)c1ccnc2ccccc12 (some centres not stated) | > 20 µM | > 20 µM
70 | Nc1ncnc2c1nc(Cl)n2C1O[C@H](CO)[C@@H](O)[C@H]1O (some centres not stated) | > 20 µM | > 20 µM
71 | O=c1c(-c2ccc(O)cc2)coc2cc(O)ccc12 [DAIDZEIN] | > 20 µM | > 20 µM
72 | Cc1nnc2n1-c1sc(Br)cc1C(c1ccccc1Cl)=NC2 [BROTIZOLAM] | > 20 µM | > 20 µM
73 | COc1ccc(-c2c(C#N)c(C(=O)NN3CCCCC3)nn2-c2ccc(Cl)cc2Cl)cc1 [JHU-75528] | > 20 µM | > 20 µM
74 | CCCc1c2oc(C(=O)O)cc(=O)c2cc2c(=O)cc(C(=O)O)n(CC)c12 [NEDOCROMIL] | > 20 µM | > 20 µM
75 | C[N+]1(C)CCOC(O)(c2ccc(-c3ccc(C4(O)C[N+](C)(C)CCO4)cc3)cc2)C1 (configuration not stated) [HEMICHOLINIUM-3] | > 20 µM | > 20 µM
76 | CN1CCN2c3ccccc3Cn3cccc3[C@@H]2C1 | > 20 µM | > 20 µM
